ChEMBL document CHEMBL5352439, “Design, synthesis, biological evaluation and molecular docking study of novel urea-based benzamide derivatives as potent poly(ADP-ribose) polymerase-1 (PARP-1) inhibitors” (Eur J Med Chem, 2022)

Legend:
HCT-116 [1] = test: Inhibition of cell migration in human HCT-116 cells at 10 uM incubated for 48 hrs by wound healing assay (reference value: 42.8 %); format: functional
A-375 [2] = test: Antiproliferative activity against human A-375 cells assessed as inhibition of cell growth at 20 uM incubated for 48 hrs by MTT assay; format: functional
HeLa [3] = test: Antiproliferative activity against human HeLa cells assessed as inhibition of cell growth at 20 uM incubated for 48 hrs by MTT assay; format: functional
HCT-116 [4] = test: Inhibition of cell migration in human HCT-116 cells at 10 uM incubated for 24 hrs by wound healing assay (reference value: 32.0 %); format: functional
MDA-MB-231 [5] = test: Antiproliferative activity against human MDA-MB-231 cells assessed as inhibition of cell growth incubated for 48 hrs by MTT assay; format: functional, cell-based; conditions: MDA-MB-231, 48 h
HCT-116 [6] = test: Inhibition of cell migration in human HCT-116 cells at 20 uM incubated for 24 hrs by wound healing assay (reference value: 32.0 %); format: functional
[7] = molecular target: Poly [ADP-ribose] polymerase 1 (Homo sapiens, UniProt P09874); test: Inhibition of PARP1 (unknown origin) by ELISA
Chain of Poly [ADP-ribose] polymerase 1 (P09874 whole entry): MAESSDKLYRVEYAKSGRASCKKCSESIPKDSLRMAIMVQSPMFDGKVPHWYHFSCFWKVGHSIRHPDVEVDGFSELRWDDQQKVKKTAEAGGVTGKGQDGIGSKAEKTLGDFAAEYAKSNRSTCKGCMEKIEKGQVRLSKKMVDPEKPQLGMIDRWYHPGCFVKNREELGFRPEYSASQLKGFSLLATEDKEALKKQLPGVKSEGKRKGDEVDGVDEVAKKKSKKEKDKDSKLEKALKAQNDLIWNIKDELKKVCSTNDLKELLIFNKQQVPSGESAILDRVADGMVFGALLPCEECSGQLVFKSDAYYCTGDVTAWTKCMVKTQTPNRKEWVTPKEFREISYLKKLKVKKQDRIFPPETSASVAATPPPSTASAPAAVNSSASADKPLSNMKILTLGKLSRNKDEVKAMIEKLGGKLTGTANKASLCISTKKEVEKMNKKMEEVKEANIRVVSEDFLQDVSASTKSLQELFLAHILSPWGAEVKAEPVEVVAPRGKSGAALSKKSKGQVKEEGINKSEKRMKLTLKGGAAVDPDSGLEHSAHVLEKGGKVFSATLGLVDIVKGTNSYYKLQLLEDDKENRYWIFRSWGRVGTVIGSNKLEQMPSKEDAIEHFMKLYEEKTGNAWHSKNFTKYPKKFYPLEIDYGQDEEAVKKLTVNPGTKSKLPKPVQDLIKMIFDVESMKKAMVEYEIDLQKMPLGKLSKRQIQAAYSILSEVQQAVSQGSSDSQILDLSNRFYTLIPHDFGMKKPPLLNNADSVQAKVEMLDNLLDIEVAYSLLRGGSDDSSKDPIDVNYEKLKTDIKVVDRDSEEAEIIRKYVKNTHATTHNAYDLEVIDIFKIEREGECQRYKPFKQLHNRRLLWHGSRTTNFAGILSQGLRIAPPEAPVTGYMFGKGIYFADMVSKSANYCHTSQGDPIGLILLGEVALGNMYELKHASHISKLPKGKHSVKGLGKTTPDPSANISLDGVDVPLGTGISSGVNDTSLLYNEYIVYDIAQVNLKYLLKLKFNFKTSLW

HCT-116 [8] = test: Inhibition of colony formation in human HCT-116 cells measured every 3 days for 14 days by crystal violet staining based assay; format: functional, cell-based; conditions: dose 1.88-15 µM, time 14.0 day
HCT-116 [9] = test: Inhibition of cell migration in human HCT-116 cells at 20 uM incubated for 48 hrs by wound healing assay (reference value: 42.8 %); format: functional
HCT-116 [10] = test: Induction of apoptosis in human HCT-116 cells assessed as early apoptotic cells at 20 uM incubated for 48 hrs by Annexin-V and PI staining based flow cytometry analysis (reference value: 1.26%); format: functional
HCT-116 [11] = test: Inhibition of colony formation in human HCT-116 cells at 7.5 uM measured every 3 days for 14 days by crystal violet staining based assay; format: functional; conditions: HCT-116, 336 h, time 14 day
HCT-116 [12] = test: Induction of apoptosis in human HCT-116 cells assessed as necrotic cells at 20 uM incubated for 48 hrs by Annexin-V and PI staining based flow cytometry analysis (reference value: 0.08%); format: functional
A549 [13] = test: Antiproliferative activity against human A549 cells assessed as inhibition of cell growth incubated for 48 hrs by MTT assay; format: functional, cell-based; conditions: A549, 48 h
MDA-MB-231 [14] = test: Antiproliferative activity against human MDA-MB-231 cells assessed as inhibition of cell growth at 20 uM incubated for 48 hrs by MTT assay; format: functional
HeLa [15] = test: Antiproliferative activity against human HeLa cells assessed as inhibition of cell growth incubated for 48 hrs by MTT assay; format: functional, cell-based
HCT-116 [16] = test: Induction of apoptosis in human HCT-116 cells assessed as viable cells at 10 uM incubated for 48 hrs by Annexin-V and PI staining based flow cytometry analysis (reference value: 98.50%); format: functional; conditions: read-out: Activity
HCT-116 [17] = test: Induction of apoptosis in human HCT-116 cells assessed as necrotic cells at 10 uM incubated for 48 hrs by Annexin-V and PI staining based flow cytometry analysis (reference value: 0.08%); format: functional
A-375 [18] = test: Antiproliferative activity against human A-375 cells assessed as inhibition of cell growth incubated for 48 hrs by MTT assay; format: functional, cell-based; conditions: A-375, 48 h
HCT-116 [19] = test: Induction of apoptosis in human HCT-116 cells assessed as late apoptotic cells at 5 uM incubated for 48 hrs by Annexin-V and PI staining based flow cytometry analysis (reference value: 0.06%); format: functional
L02 = test: Antiproliferative activity against human L02 cells assessed as inhibition of cell growth […] incubated for 48 hrs by MTT assay; format: functional, cell-based; conditions: L02, 48 h
HCT-116 [20] = test: Induction of apoptosis in human HCT-116 cells assessed as late apoptotic cells at 20 uM incubated for 48 hrs by Annexin-V and PI staining based flow cytometry analysis (reference value: 0.06%); format: functional
HCT-116 [21] = test: Inhibition of colony formation in human HCT-116 cells at 10 uM measured every 3 days for 14 days by crystal violet staining based assay; format: functional; conditions: HCT-116, 336 h, time 14 day
HCT-116 [22] = test: Induction of apoptosis in human HCT-116 cells assessed as early apoptotic cells at 10 uM incubated for 48 hrs by Annexin-V and PI staining based flow cytometry analysis (reference value: 1.26%); format: functional
HCT-116 [23] = test: Induction of apoptosis in human HCT-116 cells assessed as necrotic cells at 5 uM incubated for 48 hrs by Annexin-V and PI staining based flow cytometry analysis (reference value: 0.08%); format: functional
HCT-116 [24] = test: Induction of apoptosis in human HCT-116 cells assessed as late apoptotic cells at 10 uM incubated for 48 hrs by Annexin-V and PI staining based flow cytometry analysis (reference value: 0.06%); format: functional
A549 [25] = test: Antiproliferative activity against human A549 cells assessed as inhibition of cell growth at 20 uM incubated for 48 hrs by MTT assay; format: functional
HCT-116 [26] = test: Induction of apoptosis in human HCT-116 cells assessed as early apoptotic cells at 5 uM incubated for 48 hrs by Annexin-V and PI staining based flow cytometry analysis (reference value: 1.26%); format: functional
HCT-116 [27] = test: Induction of cell cycle arrest in human HCT-116 cells assessed as accumulation of cells at G2/M phase at 10 to 40 uM incubated for 48 hrs by propidium iodide staining based flow cytometry analysis (reference value: 27.38 %); format: functional; conditions: dose 10-40 µM
HCT-116 [28] = test: Antiproliferative activity against human HCT-116 cells assessed as inhibition of cell growth at 20 uM incubated for 48 hrs by MTT assay; format: functional
HCT-116 [29] = test: Potency index, ratio of olaparib IC50 to test compound IC50 for antiproliferative activity against human HCT-116 cells; format: functional
HCT-116 [30] = test: Induction of apoptosis in human HCT-116 cells assessed as viable cells at 5 uM incubated for 48 hrs by Annexin-V and PI staining based flow cytometry analysis (reference value: 98.50%); format: functional; conditions: read-out: Activity
HCT-116 [31] = test: Induction of cell cycle arrest in human HCT-116 cells assessed as decrease in cells at G0/G1 phase at 10 to 40 uM incubated for 48 hrs by propidium iodide staining based flow cytometry analysis (reference value: 63.67 %); format: functional; set-up: scale not given: the % may be the effect or the level left; conditions: dose 10-40 µM
HCT-116 [32] = test: Induction of apoptosis in human HCT-116 cells assessed as viable cells at 20 uM incubated for 48 hrs by Annexin-V and PI staining based flow cytometry analysis (reference value: 98.50%); format: functional; conditions: read-out: Activity

- IC50 (MDA-MB-231 [5]): 14.2 µM
- IC50 [7]: 0.00606 µM
- IC50 (A549 [13]): 26.4 µM
- IC50 (HeLa [15]): 13.3 µM
- IC50 (A-375 [18]): 19.5 µM
Structure (SMILES): NC(=O)c1ccccc1OCc1cccc(NC(=O)Nc2cccc(Br)c2)c1
- inhibition at 10 µM (HCT-116 [1]): 25.1%
- inhibition at 20 µM (A-375 [2]): 80.8%
- inhibition at 20 µM (HeLa [3]): 71.2%
- inhibition at 10 µM (HCT-116 [4]): 23%
- inhibition at 20 µM (HCT-116 [6]): 12%
- inhibition (HCT-116 [8]): Dose-Dependent Effect
- inhibition at 20 µM (HCT-116 [9]): 19.3%
- Activity (HCT-116 [10]): 40.51%
- inhibition at 7.5 µM (HCT-116 [11]): 100%
- Activity (HCT-116 [12]): 0.15%
- inhibition at 20 µM (MDA-MB-231 [14]): 78.8%
- viability at 10 µM (HCT-116 [16]): 85%
- Activity (HCT-116 [17]): 0.95%
- Activity (HCT-116 [19]): 0.77%
- IC50 (L02): 71.1 µM
- Activity (HCT-116 [20]): 0.89%
- inhibition at 10 µM (HCT-116 [21]): 100%
- Activity (HCT-116 [22]): 11.56%
- Activity (HCT-116 [23]): 0.55%
- Activity (HCT-116 [24]): 2.44%
- inhibition at 20 µM (A549 [25]): 49.3%
- Activity (HCT-116 [26]): 4.09%
- Activity (HCT-116 [27]): 34.14%
- inhibition at 20 µM (HCT-116 [28]): 90.7%
- Ratio IC50 (HCT-116 [29]): 8.93
- viability at 5 µM (HCT-116 [30]): 94.6%
- Activity (HCT-116 [31]): 55.17%
- viability at 20 µM (HCT-116 [32]): 58.5%
